Reference: patent publication US20220409593A1 (ARKUDA THERAPEUTICS, priority 2019, published 2022)

System: secreted mouse PGRN
Assay: progranulin induction cellular assay (PGRN assay, ELISA-based readout)
Details: progranulin secreted into cell culture medium, cells named in method: mouse primary microglia, primary cortical neurons, BV-2
Protocol: Cellular Assays: To measure the efficacy of compounds, a progranulin induction cellular assay in mouse primary microglia (pMG), primary cortical neurons, and BV-2 cell lines is used. BV-2 cells are split the day before plating into a 96well plate format at approximately 80%. Cells should be plated the day before and allowed for 1 hour attachment period and for 16 hour incubation. Levels of progranulin secreted into the cell culture medium or retained in the cell lysate can be quantified using an ELISA-based readout and measurement of secreted mouse PGRN in the medium was assessed by the methodology published by Ghidoni et al. 2012. Standard ELISA kits to measure PGRN are available from vendors such as Adipogen, R&D, and Biovendor.
Table D below presents the results of a PGRN assay as described above.

SMILES	EC50 (Mus musculus)	EC50
CN1CCC[C@]2(CN=C(N3CCc4ccccc4[C@H]3c3cc(F)cc(F)c3)O2)C1 (single isomer, unassigned) [Compound 3012]	> 10000 nM	–
CN1CCC[C@]2(CN=C(N3CCc4ccccc4[C@@H]3c3cccc(F)c3)O2)C1 (single isomer, unassigned) [Compound 3006]	–	1000 nM
Fc1ccc([C@H]2c3ccccc3CCN2C2=NC[C@]3(CCNC3)O2)cc1 (single isomer, unassigned) [Compound 3050]	15 nM	–
CN1CCC[C@]2(CN=C(N3CCc4ccccc4[C@@H]3c3ccc(F)c(F)c3)O2)C1 (stereo in doubt) [Compound 3029]	4020 nM	–
CN1CC[C@@H](F)[C@]2(CN=C(N3CCc4ccccc4[C@@H]3c3ccc(F)cc3)O2)C1 (single isomer, unassigned) [Compound 3045]	4490 nM	–
CN1CCCC2(CN=C(N3CCc4ccccc4[C@@H]3c3cccc(F)c3F)O2)C1 (mixture of isomers) [Compound 3042]	1030 nM	–
Fc1cccc([C@@H]2c3ccccc3CCN2C2=NC[C@@]3(CN4CCC3CC4)O2)c1F (single isomer, unassigned) [Compound 3018]	> 10000 nM	–
CN1CCC[C@@]2(CN=C(N3CCc4ccccc4[C@@H]3c3cccc(F)c3)O2)C1 (single isomer, unassigned) [Compound 3007]	370 nM	–
CN1CCC(F)[C@]2(CN=C(N3CCc4ccccc4[C@@H]3c3ccc(F)cc3)O2)C1 (single isomer, unassigned) [Compound 3046]	3370 nM	–
Fc1ccc([C@H]2c3ccccc3CCN2C2=NO[C@@]3(C2)CN2CCC3CC2)cc1 [Compound 3028, 2((S)-1-(4-fluorophenyl)-3,4-dihydroisoquinolin-2(1H)-yl)-4-4-azaspiro[bicyclo[2.2.2]octane-2,5oxazole]]	> 3160 nM	–
Fc1cc(F)cc([C@H]2c3ccccc3CCN2C2=NC[C@]3(CN4CCC3CC4)O2)c1 (stereo in doubt) [Compound 3037]	1000 nM	–
Fc1cccc([C@@H]2c3ccccc3CCN2C2=NC[C@@]3(CN4CCC3CC4)O2)c1 (stereo in doubt) [Compound 3022]	1490 nM	–
Fc1ccc([C@H]2c3ccccc3CCN2C2=NC[C@]3(CN4CCC3CC4)O2)cc1F (stereo in doubt) [Compound 3025]	4060 nM	–
Fc1ccc([C@H]2c3ccccc3CCN2C2=NC[C@H](C34CCN(CC3)CC4)O2)cc1 [Compound 3047, 2-((S)-1-(4-fluorophenyl)-3,4-dihydroisoquinolin-2(1H)-yl)-5-(quinuclidin-4-yl)-4,5-dihydrooxazole]	> 10000 nM	–
Fc1ccc([C@H]2c3ccccc3CCN2C2=NC[C@@]3(CN4CCC3CC4)O2)cc1F (stereo in doubt) [Compound 3024]	3960 nM	–
CN1CCC[C@]2(CN=C(N3CCc4ccccc4[C@H]3c3ccc(F)c(F)c3)O2)C1 (stereo in doubt) [Compound 3031]	4310 nM	–
Fc1cccc([C@@H]2c3ccccc3CCN2C2=NC[C@]3(CN4CCC3CC4)O2)c1 (stereo in doubt) [Compound 3023]	2170 nM	–
Fc1ccc([C@H]2c3ccccc3CCN2C2=NC[C@@H](C34CCN(CC3)CC4)O2)cc1 [Compound 3048, 2-((S)-1-(4-fluorophenyl)-3,4-dihydroisoquinolin-2(1H)-yl)-5-(quinuclidin-4-yl)-4,5-dihydrooxazole]	110 nM	–
Fc1ccc([C@H]2c3ccccc3CCN2C2=NC[C@]3(CN4CCC3CC4)O2)cc1 (single isomer, unassigned) [Compound 3000]	250 nM	–
CN1CCC[C@@]2(CN=C(N3CCc4ccccc4[C@H]3c3cc(F)cc(F)c3)O2)C1 (single isomer, unassigned) [Compound 3013]	1590 nM	–
Fc1ccc([C@@H]2c3ccccc3CCN2C2=NC[C@@]3(CN4CCC3CC4)O2)cc1F (stereo in doubt) [Compound 3026]	310 nM	–
Fc1ccc([C@@H]2c3ccccc3CCN2C2=NC[C@]3(CN4CCC3CC4)O2)cc1F (stereo in doubt) [Compound 3027]	2080 nM	–

Further lines, results first:

EC50 (Mus musculus)	EC50	SMILES
244 nM	–	Fc1ccc([C@H]2c3ccccc3CCN2C2=NC[C@@H]([C@H]3CCNC3)O2)cc1 (single isomer, unassigned) [Compound 3065]
1770 nM	–	CN1CCCC2(COC(N3CCc4ccccc4[C@@H]3c3ccc(F)cc3)=N2)C1 (stereo partly drawn) [Compound 3055]
110 nM	–	Fc1ccc([C@H]2c3ccccc3CCN2C2=NCC3(CCNCC3)O2)cc1 [Compound 3060, (S)-2-(1-(4-fluorophenyl)-3,4-dihydroisoquinolin-2(1H)-yl)-1-oxa-3,8-diazaspiro[4.5]dec-2-ene]
266 nM	–	CN1CCC[C@@H]([C@@H]2CN=C(N3CCc4ccccc4[C@@H]3c3ccc(F)cc3)O2)C1 (single isomer, unassigned) [Compound 3150]
1380 nM	–	Fc1ccc([C@H]2c3ccccc3CCN2C2=NC[C@@]3(CCN(CCC(F)(F)F)C3)O2)cc1 [Compound 3174, (S)-2-((S)-1-(4-fluorophenyl)-3,4-dihydroisoquinolin-2(1H)-yl)-7-(3,3,3-trifluoropropyl)-1-oxa-3,7-diazaspiro[4.4]non-2-ene]
475 nM	–	Fc1ccc([C@H]2c3ccccc3CCN2C2=NC[C@@H]([C@H]3CCCNC3)O2)cc1 (single isomer, unassigned) [Compound 3077]
429 nM	–	Fc1ccc([C@H]2c3ccccc3CCN2C2=N[C@H]([C@@H]3CCNC3)CO2)cc1 (single isomer, unassigned) [Compound 3071]
84.7 nM	–	Fc1ccc([C@H]2c3ccccc3CCN2C2=NCC([C@H]3CCNC3)O2)cc1 (single isomer, unassigned) [Compound 3064]
110 nM	–	CN1CCC2(CC1)CN=C(N1CCc3ccccc3[C@@H]1c1ccc(F)cc1)O2 [Compound 3059, (S)-2-(1-(4-fluorophenyl)-3,4-dihydroisoquinolin-2(1H)-yl)-8-methyl-1-oxa-3,8-diazaspiro[4.5]dec-2-ene]
3580 nM	–	CN(C)[C@H]1C[C@]2(CN=C(N3CCc4ccccc4[C@@H]3c3ccc(F)cc3)O2)C1 (single isomer, unassigned) [Compound 3158]
99.8 nM	–	Fc1ccc([C@H]2c3ccccc3CCN2C2=N[C@@H](C3(F)CNC3)CO2)cc1 (single isomer, unassigned) [Compound 3156]
209 nM	–	CN(C)[C@H]1C[C@@]2(CN=C(N3CCc4ccccc4[C@@H]3c3ccc(F)cc3)O2)C1 (single isomer, unassigned) [Compound 3159]
222 nM	–	Fc1ccc([C@H]2c3ccccc3CCN2C2=NC[C@H]([C@@H]3CCCNC3)O2)cc1 (single isomer, unassigned) [Compound 3075]
110 nM	–	Fc1ccc([C@H]2c3ccccc3CCN2C2=N[C@@]3(CCCNC3)CO2)cc1 (single isomer, unassigned) [Compound 3054]
110 nM	–	Fc1ccc([C@H]2c3ccccc3CCN2C2=NC3(CCNCC3)CO2)cc1 [Compound 3056, (S)-2-(1-(4-fluorophenyl)-3,4-dihydroisoquinolin-2(1H)-yl)-3-oxa-1,8-diazaspiro[4.5]dec-1-ene]
160 nM	–	N[C@@H]1CC[C@@]2(COC(N3CCc4ccccc4[C@@H]3c3ccc(F)cc3)=N2)C1 [Compound 3082, (5S,7R)-2-((S)-1-(4-fluorophenyl)-3,4-dihydroisoquinolin-2(1H)-yl)-3-oxa-1-azaspiro[4.4]non-1-en-7-amine]
192 nM	–	Fc1ccc([C@H]2c3ccccc3CCN2C2=NC[C@H](C3(F)CNC3)O2)cc1 (single isomer, unassigned) [Compound 3155]
440 nM	–	Fc1ccc([C@H]2c3ccccc3CCN2C2=NC[C@]3(CCCNC3)O2)cc1 [Compound 3052]
757 nM	–	N[C@H]1CCC[C@]12CN=C(N1CCc3ccccc3[C@@H]1c1ccc(F)cc1)O2 (single isomer, unassigned) [Compound 3086]
132 nM	–	Fc1ccc([C@H]2c3ccccc3CCN2C2=NC[C@@H](C3(F)CNC3)O2)cc1 (single isomer, unassigned) [Compound 3154]
181 nM	–	O[C@H]1CNC[C@]12CN=C(N1CCc3ccccc3[C@@H]1c1ccc(F)cc1)O2 [Compound 3177, (5S,9S)-2-((S)-1-(4-fluorophenyl)-3,4-dihydroisoquinolin-2(1H)-yl)-1-oxa-3,7-diazaspiro[4.4]non-2-en-9-ol]
119 nM	–	N[C@@H]1CC[C@@]2(CN=C(N3CCc4ccccc4[C@@H]3c3ccc(F)cc3)O2)C1 (single isomer, unassigned) [Compound 3081]
118 nM	–	c1ccc([C@H]2c3ccccc3CCN2C2=NC[C@@]3(CCNC3)O2)cc1 (single isomer, unassigned) [Compound 3165]
980 nM	–	Fc1ccc([C@H]2c3ccccc3CCN2C2=NC[C@@]3(CCCNC3)O2)cc1 [Compound 3051]
330 nM	–	Fc1ccc([C@H]2c3ccccc3CCN2C2=N[C@H]([C@H]3CCNC3)CO2)cc1 (single isomer, unassigned) [Compound 3072]
237 nM	–	CN(C)[C@@H]1CC[C@@]2(CN=C(N3CCc4ccccc4[C@@H]3c3ccc(F)cc3)O2)C1 (single isomer, unassigned) [Compound 3163]
181 nM	–	OCCN1CC[C@@]2(CN=C(N3CCc4ccccc4[C@@H]3c3ccc(F)cc3)O2)C1 [Compound 3175, 2-((S)-2-((S)-1-(4-fluorophenyl)-3,4-dihydroisoquinolin-2(1H)-yl)-1-oxa-3,7-diazaspiro[4.4]non-2-en-7-yl)ethan-1-ol]
163 nM	–	c1ccc([C@H]2c3ccccc3CCN2C2=NC[C@]3(CCNC3)O2)cc1 (single isomer, unassigned) [Compound 3166]
236 nM	–	N[C@@H]1CC[C@]2(CN=C(N3CCc4ccccc4[C@@H]3c3ccc(F)cc3)O2)C1 (single isomer, unassigned) [Compound 3079]
